Experiments:
Assay in all cases: Kinase Profiler 10 μM panel
PRP4(h) = PRP4(h) (Homo sapiens (Human), UniProt Q13523); assay type: biochemical
Description: (§1) In vitro kinase assays were conducted using Kinase Profiler services provided by Eurofins. The experimental method was as follows: the small molecule compound to be tested (0.001-10 μM), the protein kinase to be tested were incubated with a buffer containing substrate, 10 mM magnesium acetate, and [γ-^33P-ATP], the reaction was started by adding Mg\TPmix, after incubation for a period of time at room temperature, a 3% phosphate solution was added to the buffer to stop the reaction. Subsequently, 10 μL of the reaction mixture was quantitatively pipetted onto P30 filter paper, which was washed three times with 75 mM phosphate solution and then once with methanol. The P30 filter paper was air-dried and scintillation fluid was added for scintillation counting.

Abl (H396P)(h) = Abl (H396P)(h) (Homo sapiens (Human), UniProt P00519, H396P)
Description: as §1

Flt4(h) = Flt4(h) (Homo sapiens (Human), UniProt P35916)
Description: as §1

ALK2(h) = ALK2(h) (Homo sapiens (Human), UniProt Q04771)
Description: as §1

GRK2(h) = GRK2(h) (Homo sapiens (Human), UniProt P25098)
Description: as §1

GRK3(h) = GRK3(h) (Homo sapiens (Human), UniProt P35626)
Description: as §1

PI3 Kinase (p120g)(h) = PI3 Kinase (p120g)(h) (Homo sapiens (Human), UniProt P48736)
Description: as §1

GRK5(h) = GRK5(h) (Homo sapiens (Human), UniProt P34947)
Description: as §1

Arg(h) = Arg(h) (Homo sapiens (Human), UniProt P42684)
Description: as §1

GSK3β(h) = GSK3β(h) (Homo sapiens (Human), UniProt P49841)
Sequence of GSK3β(h) (P49841 whole entry): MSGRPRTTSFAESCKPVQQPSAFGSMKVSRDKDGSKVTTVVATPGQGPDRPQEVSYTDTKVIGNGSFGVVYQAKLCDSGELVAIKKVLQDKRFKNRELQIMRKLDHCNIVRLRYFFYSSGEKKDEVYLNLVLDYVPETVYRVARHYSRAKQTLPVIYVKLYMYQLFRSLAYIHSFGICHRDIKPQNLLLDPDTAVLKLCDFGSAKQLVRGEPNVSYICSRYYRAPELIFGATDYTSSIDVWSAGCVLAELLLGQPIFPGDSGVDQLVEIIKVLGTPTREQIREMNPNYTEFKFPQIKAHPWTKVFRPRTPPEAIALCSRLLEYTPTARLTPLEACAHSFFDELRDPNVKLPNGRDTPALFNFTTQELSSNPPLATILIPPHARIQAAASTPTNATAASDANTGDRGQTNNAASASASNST
Description: as §1

CaMKIIγ(h) = CaMKIIγ(h) (Homo sapiens (Human), UniProt Q13555)
Description: as §1

PKR(h) = PKR(h) (Homo sapiens (Human), UniProt P19525)
Description: as §1

MAP4K3(h) = MAP4K3(h) (Homo sapiens (Human), UniProt Q8IVH8)
Description: as §1

MARK1(h) = MARK1(h) (Homo sapiens (Human), UniProt Q9P0L2)
Description: as §1

CDKL2(h) = CDKL2(h) (Homo sapiens (Human), UniProt Q92772)
Sequence of CDKL2(h) (Q92772 whole entry): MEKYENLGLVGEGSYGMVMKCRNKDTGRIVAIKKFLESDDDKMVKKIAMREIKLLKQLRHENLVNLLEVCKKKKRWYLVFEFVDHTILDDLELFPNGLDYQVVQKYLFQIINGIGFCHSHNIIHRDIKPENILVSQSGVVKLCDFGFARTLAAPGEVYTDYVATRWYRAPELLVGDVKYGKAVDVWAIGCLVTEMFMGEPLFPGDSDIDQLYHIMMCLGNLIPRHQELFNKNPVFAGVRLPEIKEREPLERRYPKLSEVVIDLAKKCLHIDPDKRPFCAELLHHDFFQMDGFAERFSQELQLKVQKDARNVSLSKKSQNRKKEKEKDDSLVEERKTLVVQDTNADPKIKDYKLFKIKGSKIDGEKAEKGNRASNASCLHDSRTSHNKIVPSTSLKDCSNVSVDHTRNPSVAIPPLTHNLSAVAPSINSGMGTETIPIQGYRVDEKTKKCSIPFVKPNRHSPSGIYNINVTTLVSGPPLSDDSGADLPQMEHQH
Description: as §1

MARK3(h) = MARK3(h) (Homo sapiens (Human), UniProt P27448)
Description: as §1

CHK1(h) = CHK1(h) (Homo sapiens (Human), UniProt O14757)
Description: as §1

Met(Y1248D)(h) = Met(Y1248D)(h) (Homo sapiens (Human), UniProt P08581, Y1230D)
Description: as §1

CK2α1(h) = CK2α1(h) (Homo sapiens (Human), UniProt P68400)
Description: as §1

MKK3(h) = MKK3(h) (Homo sapiens (Human), UniProt P46734)
Sequence of MKK3(h) (P46734 whole entry): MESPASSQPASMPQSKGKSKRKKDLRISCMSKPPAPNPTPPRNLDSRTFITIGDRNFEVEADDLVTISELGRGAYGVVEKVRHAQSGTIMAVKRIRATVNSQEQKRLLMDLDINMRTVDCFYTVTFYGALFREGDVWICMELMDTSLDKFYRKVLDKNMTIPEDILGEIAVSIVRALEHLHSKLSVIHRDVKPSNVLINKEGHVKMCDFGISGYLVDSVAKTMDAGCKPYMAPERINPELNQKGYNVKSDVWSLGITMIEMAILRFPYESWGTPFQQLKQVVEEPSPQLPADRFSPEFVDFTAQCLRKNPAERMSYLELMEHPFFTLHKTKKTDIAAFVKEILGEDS
Description: as §1

MRCKα(h) = MRCKα(h) (Homo sapiens (Human), UniProt Q5VT25)
Description: as §1

CSRC(h) = CSRC(h) (Homo sapiens (Human), UniProt P12931)
Description: as §1

DAPK1(h) = DAPK1(h) (Homo sapiens (Human), UniProt P53355)
Description: as §1

TRB2(h) = TRB2(h) (Homo sapiens (Human), UniProt Q92519)
Description: as §1

NEK4(h) = NEK4(h) (Homo sapiens (Human), UniProt P51957)
Sequence of NEK4(h) (P51957 whole entry): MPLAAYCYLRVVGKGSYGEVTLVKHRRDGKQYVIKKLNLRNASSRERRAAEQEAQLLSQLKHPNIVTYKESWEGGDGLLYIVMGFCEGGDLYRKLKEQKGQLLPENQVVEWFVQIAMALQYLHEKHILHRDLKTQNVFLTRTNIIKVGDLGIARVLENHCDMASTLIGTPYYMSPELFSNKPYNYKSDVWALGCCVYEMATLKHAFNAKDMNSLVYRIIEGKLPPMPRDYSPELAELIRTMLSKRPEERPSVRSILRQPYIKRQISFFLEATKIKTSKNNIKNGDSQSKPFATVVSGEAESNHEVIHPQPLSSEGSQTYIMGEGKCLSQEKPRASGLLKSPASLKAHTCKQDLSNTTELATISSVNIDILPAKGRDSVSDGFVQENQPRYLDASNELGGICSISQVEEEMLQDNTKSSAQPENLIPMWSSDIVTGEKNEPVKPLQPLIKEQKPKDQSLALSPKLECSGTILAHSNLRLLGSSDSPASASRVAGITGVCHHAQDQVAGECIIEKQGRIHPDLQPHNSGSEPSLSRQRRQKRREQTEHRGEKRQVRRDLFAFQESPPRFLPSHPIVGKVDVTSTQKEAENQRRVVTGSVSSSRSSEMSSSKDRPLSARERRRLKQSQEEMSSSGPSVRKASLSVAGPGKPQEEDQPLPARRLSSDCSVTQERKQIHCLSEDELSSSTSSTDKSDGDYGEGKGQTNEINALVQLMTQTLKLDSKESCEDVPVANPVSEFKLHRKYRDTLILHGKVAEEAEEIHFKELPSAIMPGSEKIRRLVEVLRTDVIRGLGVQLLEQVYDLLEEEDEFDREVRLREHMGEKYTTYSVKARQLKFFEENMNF
Description: as §1

TrkB(h) = TrkB(h) (Homo sapiens (Human), UniProt Q16620)
Sequence of TrkB(h) (Q16620 32-822): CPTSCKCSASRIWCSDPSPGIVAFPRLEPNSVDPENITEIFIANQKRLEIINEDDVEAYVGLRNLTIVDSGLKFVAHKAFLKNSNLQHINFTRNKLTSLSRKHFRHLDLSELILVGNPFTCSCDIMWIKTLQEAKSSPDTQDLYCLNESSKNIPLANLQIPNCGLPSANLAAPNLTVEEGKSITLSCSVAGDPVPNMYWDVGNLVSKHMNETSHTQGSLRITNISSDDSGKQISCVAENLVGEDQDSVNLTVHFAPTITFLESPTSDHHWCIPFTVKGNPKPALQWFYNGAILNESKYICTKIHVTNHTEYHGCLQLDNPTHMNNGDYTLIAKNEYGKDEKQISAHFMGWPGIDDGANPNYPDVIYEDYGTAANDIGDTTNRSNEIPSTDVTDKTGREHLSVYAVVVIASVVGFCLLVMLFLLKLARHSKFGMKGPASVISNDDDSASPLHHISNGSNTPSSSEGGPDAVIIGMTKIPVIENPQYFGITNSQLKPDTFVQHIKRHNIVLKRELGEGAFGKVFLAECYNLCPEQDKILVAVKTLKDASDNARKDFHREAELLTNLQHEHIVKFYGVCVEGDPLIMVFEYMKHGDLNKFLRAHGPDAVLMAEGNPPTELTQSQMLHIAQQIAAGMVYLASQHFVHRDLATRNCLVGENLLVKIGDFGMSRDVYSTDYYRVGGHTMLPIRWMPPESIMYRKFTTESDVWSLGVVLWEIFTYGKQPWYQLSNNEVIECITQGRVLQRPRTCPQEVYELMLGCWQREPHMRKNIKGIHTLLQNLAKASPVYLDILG
Description: as §1

TrkC(h) = TrkC(h) (Homo sapiens (Human), UniProt Q16288)
Sequence of TrkC(h) (Q16288 32-839): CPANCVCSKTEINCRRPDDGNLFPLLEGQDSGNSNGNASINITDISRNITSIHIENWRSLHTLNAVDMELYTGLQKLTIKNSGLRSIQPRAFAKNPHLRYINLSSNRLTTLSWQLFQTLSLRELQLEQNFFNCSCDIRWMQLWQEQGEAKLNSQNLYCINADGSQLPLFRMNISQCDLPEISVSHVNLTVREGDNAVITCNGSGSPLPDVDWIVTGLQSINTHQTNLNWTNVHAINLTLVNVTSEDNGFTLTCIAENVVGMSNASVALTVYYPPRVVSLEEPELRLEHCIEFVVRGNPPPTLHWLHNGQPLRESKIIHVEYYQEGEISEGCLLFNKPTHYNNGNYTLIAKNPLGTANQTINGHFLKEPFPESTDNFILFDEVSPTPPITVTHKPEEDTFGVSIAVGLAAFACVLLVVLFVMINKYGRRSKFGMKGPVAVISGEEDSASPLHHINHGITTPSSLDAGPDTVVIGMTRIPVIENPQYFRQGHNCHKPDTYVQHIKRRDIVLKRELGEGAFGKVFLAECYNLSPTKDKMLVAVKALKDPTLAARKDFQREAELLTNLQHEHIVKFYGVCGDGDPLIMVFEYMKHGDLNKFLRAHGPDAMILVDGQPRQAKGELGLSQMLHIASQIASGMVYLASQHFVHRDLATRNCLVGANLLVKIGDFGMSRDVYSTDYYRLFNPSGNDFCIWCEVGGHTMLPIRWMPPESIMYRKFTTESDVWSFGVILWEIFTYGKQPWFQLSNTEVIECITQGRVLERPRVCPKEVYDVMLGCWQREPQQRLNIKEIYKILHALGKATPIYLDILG
Description: as §1

NLK(h) = NLK(h) (Homo sapiens (Human), UniProt Q9UBE8)
Sequence of NLK(h) (Q9UBE8 whole entry): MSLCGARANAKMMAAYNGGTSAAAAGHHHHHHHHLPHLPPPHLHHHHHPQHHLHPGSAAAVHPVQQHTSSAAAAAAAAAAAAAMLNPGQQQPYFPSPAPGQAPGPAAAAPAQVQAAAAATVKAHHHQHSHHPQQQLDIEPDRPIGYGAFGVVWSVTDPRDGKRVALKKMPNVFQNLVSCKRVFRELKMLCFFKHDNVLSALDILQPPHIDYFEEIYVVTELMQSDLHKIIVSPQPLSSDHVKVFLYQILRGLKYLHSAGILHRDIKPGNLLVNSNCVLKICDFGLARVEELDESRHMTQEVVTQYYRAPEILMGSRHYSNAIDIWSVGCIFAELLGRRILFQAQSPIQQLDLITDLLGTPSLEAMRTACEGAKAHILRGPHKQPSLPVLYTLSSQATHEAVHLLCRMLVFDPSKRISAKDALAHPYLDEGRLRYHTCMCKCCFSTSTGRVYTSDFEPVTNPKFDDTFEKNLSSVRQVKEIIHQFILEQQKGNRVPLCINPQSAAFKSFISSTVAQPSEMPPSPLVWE
Description: as §1

p70S6K(h) = p70S6K(h) (Homo sapiens (Human), UniProt P23443)
Description: as §1

EphA4(h) = EphA4(h) (Homo sapiens (Human), UniProt P54764)
Description: as §1

EphA7(h) = EphA7(h) (Homo sapiens (Human), UniProt Q15375)
Description: as §1

Wee1(h) = Wee1(h) (Homo sapiens (Human), UniProt P30291)
Description: as §1

WNK3(h) = WNK3(h) (Homo sapiens (Human), UniProt Q9BYP7)
Description: as §1

[1] = molecular target: PI3 Kinase (p110a(E542K)/p85a)(h) (Homo sapiens (Human), UniProt P42336, E542K)
Description: as §1

Sequence of GRK2(h) (P25098 whole entry): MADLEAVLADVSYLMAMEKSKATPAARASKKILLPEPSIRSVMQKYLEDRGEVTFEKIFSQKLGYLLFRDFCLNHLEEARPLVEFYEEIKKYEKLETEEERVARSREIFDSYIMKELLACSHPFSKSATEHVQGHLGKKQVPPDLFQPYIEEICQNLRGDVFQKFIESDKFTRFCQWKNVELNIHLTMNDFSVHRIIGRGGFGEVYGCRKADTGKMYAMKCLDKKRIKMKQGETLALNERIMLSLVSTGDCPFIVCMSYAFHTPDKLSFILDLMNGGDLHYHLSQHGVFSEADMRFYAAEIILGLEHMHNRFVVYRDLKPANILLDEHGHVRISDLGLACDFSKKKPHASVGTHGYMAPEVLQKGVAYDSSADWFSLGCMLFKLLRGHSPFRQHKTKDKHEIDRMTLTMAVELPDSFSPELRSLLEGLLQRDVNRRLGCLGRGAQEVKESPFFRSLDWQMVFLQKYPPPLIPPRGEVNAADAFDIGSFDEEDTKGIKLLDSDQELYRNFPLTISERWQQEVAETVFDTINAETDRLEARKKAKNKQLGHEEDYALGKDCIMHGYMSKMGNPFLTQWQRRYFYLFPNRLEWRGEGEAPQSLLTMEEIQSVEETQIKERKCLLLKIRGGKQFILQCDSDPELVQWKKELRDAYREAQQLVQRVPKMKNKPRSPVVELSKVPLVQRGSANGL

`C[C@H](NC(=O)c1c[nH]c2ccc(-c3ccc4nc(NC(=O)C5CC5)sc4c3)cc12)c1cccc(F)c1` [Compound 34, (S)-5-(2-(cyclopropanecarboxamido)benzo[d]thiazol-6-yl)-N-(1-(3-fluorophenyl)ethyl)-1H-indole-3-carboxamide] was tested, and the Inhibition ratio (PRP4(h)) was 4%, the Inhibition ratio (Abl (H396P)(h)) was 98% and the Inhibition ratio (Flt4(h)) was 93%. It also gave an Inhibition ratio (ALK2(h)) of 64%, an Inhibition ratio (GRK2(h)) of −1% and an Inhibition ratio (GRK3(h)) of −1%. For the same compound, the Inhibition ratio (PI3 Kinase (p120g)(h)) was 35%, the Inhibition ratio (GRK5(h)) was 0% and the Inhibition ratio (Arg(h)) was 89%. It also gave an Inhibition ratio (GSK3β(h)) of 13%, an Inhibition ratio (CaMKIIγ(h)) of 2% and an Inhibition ratio (PKR(h)) of 11%. It also gave an Inhibition ratio (MAP4K3(h)) of 95%, an Inhibition ratio (MARK1(h)) of 6% and an Inhibition ratio (CDKL2(h)) of 68%. It also gave an Inhibition ratio (MARK3(h)) of 0%, an Inhibition ratio (CHK1(h)) of 2% and an Inhibition ratio (Met(Y1248D)(h)) of 99%. For the same compound, the Inhibition ratio (CK2α1(h)) was 7%, the Inhibition ratio (MKK3(h)) was 35% and the Inhibition ratio (MRCKα(h)) was 12%. It also gave an Inhibition ratio (CSRC(h)) of 43%, an Inhibition ratio (DAPK1(h)) of 12% and an Inhibition ratio (TRB2(h)) of 65%. For the same compound, the Inhibition ratio (NEK4(h)) was 30%, the Inhibition ratio (TrkB(h)) was 100% and the Inhibition ratio (TrkC(h)) was 104%. The Inhibition ratio (NLK(h)) was 25%, the Inhibition ratio (p70S6K(h)) was 25% and the Inhibition ratio (EphA4(h)) was 14%. The Inhibition ratio (EphA7(h)) was 96%, the Inhibition ratio (Wee1(h)) was −1% and the Inhibition ratio (WNK3(h)) was 18%. The Inhibition ratio [1] was 38%.

With `C[C@H](NC(=O)c1cn(C)c2ccc(-c3ccn4nc(NC(=O)C5CC5)nc4c3)cc12)c1cccc(F)c1` [Compound 94, (S)-5-(2-(cyclopropanecarboxamido)-[1,2,4]triazolo[1,5-a]pyridin-7-yl)-N-(1-(3-fluorophenyl)ethyl)-1-methyl-1H-indole-3-carboxamide] the Inhibition ratio/% (PRP4(h)) was 5%, the Inhibition ratio/% (Abl (H396P)(h)) was 34% and the Inhibition ratio/% (Flt4(h)) was 34%. The Inhibition ratio/% (ALK2(h)) was −17%, the Inhibition ratio/% (GRK2(h)) was 53% and the Inhibition ratio/% (GRK3(h)) was −12%. It also gave an Inhibition ratio/% (PI3 Kinase (p120g)(h)) of −12%, an Inhibition ratio/% (GRK5(h)) of 21% and an Inhibition ratio/% (Arg(h)) of 42%. For the same compound, the Inhibition ratio/% (GSK3β(h)) was 1%, the Inhibition ratio/% (CaMKIIγ(h)) was −15% and the Inhibition ratio/% (PKR(h)) was 19%. For the same compound, the Inhibition ratio/% (MAP4K3(h)) was 28%, the Inhibition ratio/% (MARK1(h)) was −13% and the Inhibition ratio/% (CDKL2(h)) was 62%. For the same compound, the Inhibition ratio/% (MARK3(h)) was −3%, the Inhibition ratio/% (CHK1(h)) was −2% and the Inhibition ratio/% (Met(Y1248D)(h)) was 13%. For the same compound, the Inhibition ratio/% (CK2α1(h)) was 58%, the Inhibition ratio/% (MKK3(h)) was 38% and the Inhibition ratio/% (MRCKα(h)) was −19%. The Inhibition ratio/% (CSRC(h)) was −17%, the Inhibition ratio/% (DAPK1(h)) was 40% and the Inhibition ratio/% (TRB2(h)) was −5%. For the same compound, the Inhibition ratio/% (NEK4(h)) was 27%, the Inhibition ratio/% (TrkB(h)) was 0% and the Inhibition ratio/% (TrkC(h)) was 28%. The Inhibition ratio/% (NLK(h)) was 16%, the Inhibition ratio/% (p70S6K(h)) was −18% and the Inhibition ratio/% (EphA4(h)) was 11%. It also gave an Inhibition ratio/% (EphA7(h)) of 20%, an Inhibition ratio/% (Wee1(h)) of 1% and an Inhibition ratio/% (WNK3(h)) of −20%. It also gave an Inhibition ratio/% [1] of −4%.

Reference: US20230365546A1, “5-SUBSTITUTED INDOLE 3-AMIDE DERIVATIVES, PREPARATION METHOD AND USE THEREOF” (ORIGIANT PHARMACEUTICAL CO., LTD, priority 2020, published 2023)
